The source of these data is patent US20240336611A1 (Insilico Medicine IP Limited, priority 2021, published 2024).

Series [1] deals with T1, TNIK kinase [amino acid sequence (1-367), Invitrogen] (Homo sapiens, UniProt Q9UKE5).
T1 construct: purchased Invitrogen
Kind of series: TNIK kinase inhibition assay (Z-lyte FRET-peptide). In kind it is biochemical. The conditions noted are these: 0.625 nM TNIK kinase, 2 μM Ser/Thr 7 peptide, 64 μM ATP, one hour at room temperature.

Series [2] can be described thus: Metabolic stability in human liver microsomes. The conditions noted are these: LM Clint (intrinsic clearance); 1 μM test compound, 0.5 mg protein/mL microsome, 37° C., up to 60 min. In kind it is in vitro ADME. In general terms: Liver microsomes are vesicles of endoplasmic reticulum, rich in cytochrome P450 enzymes.

T1 sequence (Q9UKE5 1-367): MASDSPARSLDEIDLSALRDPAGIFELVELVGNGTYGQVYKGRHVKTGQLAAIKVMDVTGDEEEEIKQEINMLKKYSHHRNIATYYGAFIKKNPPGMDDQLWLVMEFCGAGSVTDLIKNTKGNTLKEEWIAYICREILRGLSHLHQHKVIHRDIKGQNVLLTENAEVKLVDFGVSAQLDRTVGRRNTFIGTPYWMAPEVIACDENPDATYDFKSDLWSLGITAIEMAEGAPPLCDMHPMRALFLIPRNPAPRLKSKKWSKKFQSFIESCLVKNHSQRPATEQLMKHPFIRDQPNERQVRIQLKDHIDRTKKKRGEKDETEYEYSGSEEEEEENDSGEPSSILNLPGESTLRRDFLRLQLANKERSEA

Take `CC(C)c1onc(-c2ccc(F)cc2)c1-c1nc(C(=O)Nc2ccc(C3CN(C)C3)cn2)cs1` [Compound 90, 2-(3-(4-fluorophenyl)-5-isopropylisoxazol-4-yl)-N-(5-(1-methylazetidin-3-yl)pyridin-2-yl)thiazole-4-carboxamide]: the IC50 in series [1] was in the range of 1 to 12 nM. Besides, the “Human Liver Microsome (μM/min/mg)” value in series [2] is reported as “++ (10-100 μM/min/mg as ++)”.
In the case of `CCN1CC(c2ccc(NC(=O)c3csc(-c4c(-c5ccc(F)cc5)ncn4C(C)C)n3)nc2)C1` [Compound 91, N-(5-(1-ethylazetidin-3-yl)pyridin-2-yl)-2-(4-(4-fluorophenyl)-1-isopropyl-1H-imidazol-5-yl)thiazole-4-carboxamide], the IC50 in series [1] lay in the range of 1 to 12 nM. In addition, the “Human Liver Microsome (μM/min/mg)” value in series [2] is listed as “++ (10-100 μM/min/mg as ++)”.
In the case of `CC(C)c1onc(-c2ccc(F)cc2)c1-c1nc(C(=O)Nc2ccc(C3COC3)cc2F)cs1` [Compound 92, N-(2-fluoro-4-(oxetan-3-yl)phenyl)-2-(3-(4-fluorophenyl)-5-isopropylisoxazol-4-yl)thiazole-4-carboxamide], the IC50 in series [1] lay in the range of 12 to 150 nM. Moreover, the “Human Liver Microsome (μM/min/mg)” value in series [2] was “++ (10-100 μM/min/mg as ++)”.
Consider `CC(C)c1noc(-c2ccc(F)cc2)c1-c1nc(C(=O)Nc2ccc(C3COC3)cn2)cs1` [Compound 93, 2-(5-(4-fluorophenyl)-3-isopropylisoxazol-4-yl)-N-(5-(oxetan-3-yl)pyridin-2-yl)thiazole-4-carboxamide], for which the IC50 in series [1] is 1 to 12 nM. Further, the “Human Liver Microsome (μM/min/mg)” value in series [2] is “++ (10-100 μM/min/mg as ++)”.
Consider `CC(C)c1onc(-c2ccc(F)cc2)c1-c1nc(C(=O)Nc2ccc(C3COC3)cn2)cs1` [Compound 94, 2-(3-(4-fluorophenyl)-5-isopropylisoxazol-4-yl)-N-(5-(oxetan-3-yl)pyridin-2-yl)thiazole-4-carboxamide], for which the IC50 in series [1] lay within 1 to 12 nM. The “Human Liver Microsome (μM/min/mg)” value in series [2] is listed as “++ (10-100 μM/min/mg as ++)”.
`CC(C)c1noc(-c2ccc(F)cc2)c1-c1nc(C(=O)Nc2ccc(N3CC4CC(C3)N4C)cn2)cs1` [Compound 95, 2-(5-(4-fluorophenyl)-3-isopropylisoxazol-4-yl)-N-(5-(6-methyl-3,6-diazabicyclo[3.1.1]heptan-3-yl)pyridin-2-yl)thiazole-4-carboxamide] came in with an IC50 in series [1] of 1 to 12 nM. Besides, the “Human Liver Microsome (μM/min/mg)” value in series [2] is “++ (10-100 μM/min/mg as ++)”.
In series [1], `CC(C)c1onc(-c2ccc(F)cc2)c1-c1nc(C(=O)Nc2ccc(N3CC4CC(C3)N4C)cn2)cs1` [Compound 96, 2-(3-(4-fluorophenyl)-5-isopropylisoxazol-4-yl)-N-(5-(6-methyl-3,6 diazabicyclo[3.1.1]heptan-3-yl)pyridin-2-yl)thiazole-4-carboxamide] gave an IC50 of 1 to 12 nM. For the same molecule, the “Human Liver Microsome (μM/min/mg)” value in series [2] was “++ (10-100 μM/min/mg as ++)”.
As for `CC(C)c1noc(-c2ccc(F)cc2)c1-c1nc(C(=O)Nc2ccc(N3CC4CC(C3)N4C)cc2F)cs1` [Compound 97, N-(2-fluoro-4-(6-methyl-3,6-diazabicyclo[3.1.1]heptan-3-yl)phenyl)-2-(5-(4-fluorophenyl)-3-isopropylisoxazol-4-yl)thiazole-4-carboxamide], the half-maximal inhibitory concentration (IC50) in series [1] lay within 1 to 12 nM. Moreover, the “Human Liver Microsome (μM/min/mg)” value in series [2] is reported as “++ (10-100 μM/min/mg as ++)”.
For `CC(C)c1onc(-c2ccc(F)cc2)c1-c1nc(C(=O)Nc2ccc(N3CC4CC(C3)N4C)cc2F)cs1` [Compound 98, N-(2-fluoro-4-(6-methyl-3,6-diazabicyclo[3.1.1]heptan-3-yl)phenyl)-2-(3-(4-fluorophenyl)-5-isopropylisoxazol-4-yl)thiazole-4-carboxamide] the same measures were 1 to 12 nM and “++ (10-100 μM/min/mg as ++)”.
`CC(C)n1cnc(-c2ccc(F)cc2)c1-c1nc(C(=O)Nc2ccc(N3CCOCC3)cn2)cs1` [Compound 99, 2-(4-(4-fluorophenyl)-1-isopropyl-1H-imidazol-5-yl)-N-(5-morpholinopyridin-2-yl)thiazole-4-carboxamide] displayed a concentration for half-maximal inhibition (IC50) in series [1] of 1 to 12 nM. Moreover, in series [2], the “Human Liver Microsome (μM/min/mg)” value is given as “++ (10-100 μM/min/mg as ++)”.
`CC(C)n1cnc(-c2ccc(F)cc2)c1-c1nc(C(=O)Nc2ccc(N3CCOCC3)cc2F)cs1` [Compound 100, N-(2-fluoro-4-morpholinophenyl)-2-(4-(4-fluorophenyl)-1-isopropyl-1H-imidazol-5-yl) thiazole-4-carboxamide] had an IC50 in series [1] of 1 to 12 nM. The “Human Liver Microsome (μM/min/mg)” value in series [2] is “++ (10-100 μM/min/mg as ++)”.
In the case of `CC(C)n1cnc(-c2ccc(F)cc2)c1-c1nc(C(=O)Nc2ccc(C3CN(C)C3)cn2)co1` [Compound 102, 2-(4-(4-fluorophenyl)-1-isopropyl-1H-imidazol-5-yl)-N-(5-(1-methylazetidin-3-yl)pyridin-2-yl)oxazole-4-carboxamide], the IC50 in series [1] lay within 12 to 150 nM. Moreover, in series [2], the “Human Liver Microsome (μM/min/mg)” value is recorded as “++ (10-100 μM/min/mg as ++)”.
In series [1], `[2H]C([2H])([2H])N1CC(c2ccc(NC(=O)c3csc(-c4c(-c5ccc(F)cc5)ncn4C(C)C)n3)nc2)C1` [Compound 108, 2-[5-(4-fluorophenyl)-3-isopropyl-imidazol-4-yl]-N-[5-[1-(trideuteriomethyl)azetidin-3-yl]-2-pyridyl]thiazole-4-carboxamide] registered an IC50 of 1 to 12 nM. Also, the “Human Liver Microsome (μM/min/mg)” value in series [2] is “++ (10-100 μM/min/mg as ++)”.
`COCCN1CC(c2ccc(NC(=O)c3csc(-c4c(-c5ccc(F)cc5)ncn4C(C)C)n3)nc2)C1` [Compound 109, 2-(4-(4-fluorophenyl)-1-isopropyl-1H-imidazol-5-yl)-N-(5-(1-(2-methoxyethyl)azetidin-3-yl)pyridin-2-yl)thiazole-4-carboxamide] registered a concentration for half-maximal inhibition (IC50) in series [1] of 1 to 12 nM. Further, the “Human Liver Microsome (μM/min/mg)” value in series [2] is given as “++ (10-100 μM/min/mg as ++)”.
Turning to `[2H]C([2H])([2H])N1CC(c2ccc(NC(=O)c3c[nH]c(-c4c(-c5ccc(F)cc5)ncn4C(C)C)n3)c(F)c2)C1` [Compound 114, 2-[5-(4-fluorophenyl)-3-isopropyl-imidazol-4-yl]-N-[2-fluoro-4-[1-(trideuteriomethyl)azetidin-3-yl]phenyl]-1H-imidazole-4-carboxamide], in series [1], the IC50 was in the range of 1 to 12 nM. Besides, in series [2], the “Human Liver Microsome (μM/min/mg)” value is on record as “+++ (1-10 μM/min/mg as +++)”.
`[2H]C([2H])([2H])N1CC(c2ccc(NC(=O)c3csc(-c4c(-c5ccc(F)cc5)noc4C(C)C)n3)nc2)C1` [Compound 115, 2-[3-(4-fluorophenyl)-5-isopropyl-isoxazol-4-yl]-N-[5-[1-(trideuteriomethyl)azetidin-3-yl]-2-pyridyl]thiazole-4-carboxamide] returned a half-inhibitory concentration (IC50) in series [1] of 1 to 12 nM. Moreover, the “Human Liver Microsome (μM/min/mg)” value in series [2] is “++ (10-100 μM/min/mg as ++)”.
For the molecule `CC(C)n1cnc(-c2ccc(F)cc2)c1-c1nc(C(=O)Nc2ccc(N3CCP(C)(=O)CC3)cc2F)cs1` [Compound 117, N-(2-fluoro-4-(4-methyl-4-oxido-1,4-azaphosphinan-1-yl)phenyl)-2-(4-(4-fluorophenyl)-1-isopropyl-1H-imidazol-5-yl)thiazole-4-carboxamide], in series [1], the IC50 was 1 to 12 nM. Besides, the “Human Liver Microsome (μM/min/mg)” value in series [2] is reported as “++ (10-100 μM/min/mg as ++)”.
`[2H]C([2H])([2H])N1CC(c2ccc(NC(=O)c3nc(-c4c(-c5ccc(F)cc5)ncn4C4CCC4)cs3)nc2)C1` [Compound 121, 4-(1-cyclobutyl-4-(4-fluorophenyl)-1H-imidazol-5-yl)-N-(5-(1-(trideuteriomethyl)azetidin-3-yl)pyridin-2-yl)thiazole-2-carboxamide] showed an IC50 in series [1] of 1 to 12 nM. In series [2], the “Human Liver Microsome (μM/min/mg)” value was “++ (10-100 μM/min/mg as ++)”.
`[2H]C([2H])([2H])N1CC(c2ccc(NC(=O)c3nc(-c4c(-c5ccc(F)cc5)ncn4C4CCC4)cs3)c(F)c2)C1` [Compound 122, 4-[3-cyclobutyl-5-(4-fluorophenyl)imidazol-4-yl]-N-[2-fluoro-4-[1-(trideuteriomethyl)azetidin-3-yl]phenyl]thiazole-2-carboxamide] showed a 50% inhibitory concentration (IC50) in series [1] of 1 to 12 nM. Moreover, in series [2], the “Human Liver Microsome (μM/min/mg)” value was “++ (10-100 μM/min/mg as ++)”.
For `[2H]C([2H])([2H])N1CC(c2ccc(NC(=O)c3csc(-c4c(-c5ccc(F)c(Cl)c5)ncn4C(C)C)n3)nc2)C1` [Compound 123, 2-[5-(3-chloro-4-fluoro-phenyl)-3-isopropyl-imidazol-4-yl]-N-[5-[1-(trideuteriomethyl)azetidin-3-yl]-2-pyridyl]thiazole-4-carboxamide] the same measures were 1 to 12 nM and “++ (10-100 μM/min/mg as ++)”.
For `[2H]C([2H])([2H])N1CCN(c2ccc(NC(=O)c3c[nH]c(-c4c(-c5ccc(F)cc5)ncn4C(C)C)n3)nc2)CC1` [Compound 124, 2-[5-(4-fluorophenyl)-3-isopropyl-imidazol-4-yl]-N-[5-[4 (trideuteriomethyl)piperazin-1-yl]-2-pyridyl]-1H-imidazole-4-carboxamide] the same measures were 1 to 12 nM and “++ (10-100 μM/min/mg as ++)”.
The molecule `[2H]C([2H])([2H])N1CCN(c2ccc(NC(=O)c3c[nH]c(-c4c(-c5ccc(F)cc5)ncn4C([2H])(C)C)n3)nc2)CC1` [Compound 125, 2-[3-(1-deuterio-1-methyl-ethyl)-5-(4-fluorophenyl)imidazol-4-yl]-N-[5-[4-(trideuteriomethyl)piperazin-1-yl]-2-pyridyl]-1H-imidazole-4-carboxamide] came in with an IC50 in series [1] of 1 to 12 nM. The “Human Liver Microsome (μM/min/mg)” value in series [2] was “++ (10-100 μM/min/mg as ++)”.
In the case of `[2H]C([2H])([2H])N1CCN(c2ccc(NC(=O)c3c[nH]c(-c4c(-c5ccc(F)cc5)ncn4C(C)C)n3)c(F)c2)CC1` [Compound 126, 2-[5-(4-fluorophenyl)-3-isopropyl-imidazol-4-yl]-N-[2-fluoro-4-[4-(trideuteriomethyl)piperazin-1-yl]phenyl]-1H-imidazole-4-carboxamide], the IC50 in series [1] lay in the range of 1 to 12 nM. Further, in series [2], the “Human Liver Microsome (μM/min/mg)” value is “++ (10-100 μM/min/mg as ++)”.

Usually IC50 stands for the concentration needed to halve the response being measured. Higher therefore signals a need for much substance.
